Here are results for 1 molecule from US7928368B2, “Micropillar array electrospray chip” (Licentia Oy, priority 2007, dated 2011).

In this data set the test system is rat hepatocytes. Nature of the data set: metabolism sample: incubation of sibutramine with rat hepatocytes, metabolites detected by μPESI/MS. The class given is in vitro ADME. The note with it: R-enantiomer of sibutramine hydrochloride incubated with rat hepatocytes for 8 h, 2.5-μl injection, Q-TOF Micro. The method, then: For bioanalysis experiments verapamil, angiotensin I, angiotensin II, substance P, and horse heart myoglobin were used as test compounds and 2.5 μl of each sample was pipetted to the sample introduction spot. For the measurements of linearity and sensitivity verapamil was dissolved into acetonitrile:water (95:5) with 0.1% formic acid at concentrations of 10 pM to 10 μM. The metabolism sample was prepared by incubating R-enantiomer of sibutramine hydrochloride (purity>99%) with rat hepatocytes for 8 h. After sample preparation the sample was evaporated dryness and the residue was diluted to 50 μl of methanol. 10 μl of sample was dissolved into 500 μl acetonitrile:water (95:5) with 0.1% formic acid.
The peptides (angiotensin I, angiotensin II, and substance P) and the protein (horse heart myoglobin) were diluted into 80% aqueous methanol containing 1% acetic acid (two separate samples). The concentrations were 5 μM for the peptides and 300 nM for horse heart myoglobin. Full-scan mass spectra ranging from m/z 400 to 750 were measured from the peptide mixture and m/z 700 to 950 from the protein in the positive mode. Sibutramine metabolism sample was measured with Q-TOF Micro. A mass spectrum of solvent blank sample was subtracted from that of metabolism sample. […]

Counter-ions that a name gives are not always drawn.

For the molecule `CC(C)CC(N(C)C)C1(c2ccc(Cl)cc2)CCC1` (stereo not shown) [sibutramine, sibutramine hydrochloride], the “sibutramine metabolites found in metabolism sample” value is “small amounts of sibutramine glucuronides were found”.
